Reference: patent US8802664B2 (Bioproject, priority 2010, dated 2014)
Counter-ions that a name gives are not always drawn.

Row | melting point | SMILES
1 | 80 °C | CN1CCC(OC(c2cccc(CCc3cn(C)cn3)c2)c2nc3ccccc3s2)CC1 (stereo not drawn) (as salt: oxalate) [Example 306, 2-[{3-[2-(1-methyl-1H-imidazol-4-yl)ethyl]phenyl}(1-methylpiperidin-4-yloxy)methyl]benzothiazole]
2 | 123 °C | CN1CCC(NC(c2cccc(OCCC3=CCC4CC3C4(C)C)c2)c2nc3ccccc3[nH]2)CC1 (stereo not drawn) (as salt: oxalate) [Example 181, ((1H-benzimidazol-2-yl)-{3-[2-(6,6-dimethyl-bicyclo[3.1.1]hept-2-en-2-yl)ethoxy]phenyl}methyl)(1-methylpiperidin-4-yl)amine]
3 | 175 °C | CN1CCC(OC(c2nc3ccccc3[nH]2)c2cc(I)ccc2F)CC1 (stereo not drawn) (as salt: oxalate) [Example 425, 2-[(2-fluoro-5-iodo-phenyl)(1-methylpiperidin-4-yloxy)methyl]-1H-benzimidazole]
4 | 118 °C | CCOC(=O)n1c(C(OC2CCN(C)CC2)c2cc(OC(F)(F)F)ccc2F)nc2ccccc21 (stereo not drawn) (as salt: oxalate) [Example 553]
5 | 139 °C | CN1CCC(OC(c2nc3ccccc3[nH]2)c2cc(C#CCCCN)ccc2F)CC1 (stereo not drawn) (as salt: oxalate) [Example 442]
6 | 101 °C | CN1CCC(OC(c2cccc(OCc3ccncc3)c2)c2nc3ccccc3s2)CC1 (stereo not drawn) (as salt: oxalate) [Example 265, 2-{(1-methylpiperidin-4-yloxy)[3-(pyridin-4-ylmethoxy)phenyl]methyl}benzothiazole]
7 | 158 °C | CN1CCC(OC(c2nc3ccccc3s2)c2c(F)cc(Cl)cc2F)CC1 (stereo not drawn) (as salt: oxalate) [Example 532]
8 | 52 °C | CN1CCC(OC(c2cccc(OCc3ccccc3)c2)c2nc3ccccc3s2)CC1 (stereo not drawn) (as salt: oxalate) [Example 45, 2-[(3-benzyloxyphenyl)(1-methylpiperidin-4-yloxy)methyl]benzothiazole]
9 | 72 °C | COc1ccc(C(OC2CCN(C)CC2)c2nc3ccccc3s2)cc1 (stereo not drawn) (as salt: hydrochloride) [Example 14, 2-[(4-methoxyphenyl)(1-methylpiperidin-4-yloxy)methyl]benzothiazole]
10 | 140 °C | CC(=O)c1cccc(-c2cccc(C(OC3CCN(C)CC3)c3nc4ccccc4[nH]3)c2)c1 (stereo not drawn) (as salt: oxalate) [Example 110, 1-{3′-[(1H-benzimidazol-2-yl)(1-methylpiperidin-4-yloxy)methyl]biphenyl-3-yl}ethanone]
11 | 178 to 179 °C | CN1CCC(OC(c2nc3ccccc3s2)c2ccccc2F)CC1 (stereo not drawn) (as salt: oxalate) [Example 6, 2-[(2-fluorophenyl)(1-methylpiperidin-4-yloxy)methyl]benzothiazole]
12 | 70 °C | CN1CCC(OC(c2nc3cc(F)ccc3[nH]2)c2cc(OC(F)(F)F)ccc2F)CC1 (stereo not drawn) (as salt: oxalate) [Example 509]
13 | 80 °C | CSc1cccc(-c2cccc(C(OC3CCN(C)CC3)c3nc4ccccc4[nH]3)c2)c1 (stereo not drawn) (as salt: oxalate) [Example 116, 2-[(1-methylpiperidin-4-yloxy)(3′-methylsulfanylbiphenyl-3-yl)methyl]-1H-benzimidazole]
14 | 96 °C | CC(C)Oc1cccc(C(NC2CCN(C)CC2)c2nc3ccccc3s2)c1 (stereo not drawn) (as salt: oxalate) [Example 88, [benzothiazol-2-yl(3-isopropoxyphenyl)methyl](1-methylpiperidin-4-yl)amine]
15 | 182 °C | COc1cccc(C(OC2CCN(C)CC2)c2nc3ccccc3s2)c1 (stereo not drawn) (as salt: hydrochloride) [Example 11, 2-[(3-methoxyphenyl)(1-methylpiperidin-4-yloxy)methyl]benzothiazole]
16 | 155 °C | CN1CCC(NC(c2cccc(OCCF)c2)c2nc3ccccc3[nH]2)CC1 (stereo not drawn) (as salt: oxalate) [Example 180, {(1H-benzimidazol-2-yl)[3-(2-fluoro-ethoxy)phenyl]methyl}(1-methylpiperidin-4-yl)amine]
17 | 177 °C | Cc1cccc(C(OC2CCN(C)CC2)c2nc3ccccc3s2)c1 (stereo not drawn) (as salt: oxalate) [Example 8, 2-[(1-methylpiperidin-4-yloxy)(m-tolyl)methyl]benzothiazole]
18 | 70 °C | CN1CCC(OC(c2cccc(OCCCl)c2)c2nc3ccccc3s2)CC1 (stereo not drawn) (as salt: oxalate) [Example 354, 2-[[3-(2-Chloroethoxy)phenyl](1-methylpiperidin-4-yloxy)methyl]benzothiazole]
19 | 140 °C | CN1CCC(NC(c2cccc(OCc3ccc(F)cc3)c2)c2nc3ccccc3[nH]2)CC1 (stereo not drawn) (as salt: oxalate) [Example 103, {(1H-benzimidazol-2-yl)[3-(4-fluorobenzyloxy)phenyl]methyl}(1-methylpiperidin-4-yl)amine]
20 | 188 to 195 °C | CN1CCC(NC(c2cccc(I)c2)c2nc3ccccc3s2)CC1 (stereo not drawn) (as salt: oxalate) [Example 48, [benzothiazol-2-yl(3-iodophenyl)methyl](1-methylpiperidin-4-yl)amine]

Row | melting point | SMILES
21 | 163 °C | CN1CCC(OC(c2nc3ccccc3s2)c2ccccc2Cl)CC1 (stereo not drawn) (as salt: oxalate) [Example 281, 2-[(2-Chlorophenyl)(1-methylpiperidin-4-yloxy)methyl]benzothiazole]
22 | 155 °C | CN1CCC(OC(c2ccc(OC(F)(F)F)cc2)c2nc3ccccc3s2)CC1 (stereo not drawn) (as salt: oxalate) [Example 24, 2-[(1-methylpiperidin-4-yloxy)(4-trifluoromethoxyphenyl)methyl]benzothiazole]
23 | 150 °C | CN1CCC(OC(c2cccc(-c3ccc(Cl)c(Cl)c3)c2)c2nc3ccccc3[nH]2)CC1 (stereo not drawn) (as salt: oxalate) [Example 122, 2-[(3′,4′-dichlorobiphenyl-3-yl)(1-methylpiperidin-4-yloxy)methyl]-1H-benzimidazole]
24 | 76 °C | CN1CCC(OC(c2cccc(OC3CCNCC3)c2)c2nc3ccccc3s2)CC1 (stereo not drawn) (as salt: oxalate) [Example 415, 2-{(1-methylpiperidin-4-yloxy)[3-(piperidin-4-yloxy)phenyl]methyl}benzothiazole]
25 | 206 to 207 °C | CN1CCC(OC(c2cccc(-c3ccccc3CO)c2)c2nc3ccccc3s2)CC1 (stereo not drawn) (as salt: oxalate) [Example 127, {3′-[benzothiazol-2-yl(1-methylpiperidin-4-yloxy)methyl]biphenyl-2-yl}methanol]
26 | 132 °C | Cc1cccc(C(NC2CCN(C)CC2)c2nc3ccccc3[nH]2)c1 (stereo not drawn) (as salt: oxalate) [Example 84, [(1H-benzimidazol-2-yl)(m-tolyl)methyl](1-methylpiperidin-4-yl)amine]
27 | 136 °C | CN1CCC(OC(c2cccc(OCCNCC(=O)OC(C)(C)C)c2)c2nc3ccccc3s2)CC1 (stereo not drawn) (as salt: oxalate) [Example 370, (2-{3-[benzothiazol-2-yl(1-methylpiperidin-4-yloxy)methyl]phenoxy}ethylamino)acetic acid tert-butyl ester]
28 | 137 °C | CN1CCC(OC(c2cccc(N3CCC(N)C3)c2)c2nc3ccccc3s2)CC1 (stereo not drawn) (as salt: oxalate) [Example 429, 1-{3-[benzothiazol-2-yl(1-methylpiperidin-4-yloxy)methyl]phenyl}pyrrolidin-3-ylamine]
29 | 80 °C | CN1CCC(OC(c2cccc(SCCN)c2)c2nc3ccccc3s2)CC1 (stereo not drawn) (as salt: oxalate) [Example 269, 2-{3-[benzothiazol-2-yl(1-methylpiperidin-4-yloxy)methyl]phenylsulfanyl}ethylamine]
30 | 198 °C | CN1CCC(OC(c2ccc3ccccc3c2)c2nc3ccccc3s2)CC1 (stereo not drawn) (as salt: hydrochloride) [Example 18, 2-[(1-methylpiperidin-4-yloxy)naphthalen-2-ylmethyl]benzothiazole]
31 | 90 °C | CN1CCC(OC(c2cccc(OCC3CCNCC3)c2)c2nc3ccccc3s2)CC1 (stereo not drawn) (as salt: oxalate) [Example 377, 2-{(1-methylpiperidin-4-yloxy)[3-(piperidin-4-ylmethoxy)phenyl]methyl}benzothiazole]
32 | 115 °C | CN1CCC(OC(c2cccc(OCCCCN)c2)c2nc3ccccc3[nH]2)CC1 (stereo not drawn) (as salt: oxalate) [Example 331, 4-{3-[(1H-benzimidazol-2-yl)(1-methylpiperidin-4-yloxy)methyl]phenoxy}butylamine]
33 | 103 °C | CN1CCC(OC(c2nc3ccccc3o2)c2cc(OC(F)(F)F)ccc2F)CC1 (stereo not drawn) (as salt: oxalate) [Example 525, 2-[(2-fluoro-5-trifluoromethoxyphenyl)(1-methylpiperidin-4-yloxy)methyl]benzoxazole]
34 | 103 °C | CN1CCC(OC(c2cccc(C(=O)N(C)Cc3ccccc3)c2)c2nc3ccccc3s2)CC1 (stereo not drawn) (as salt: oxalate) [Example 219, 3-[benzothiazol-2-yl(1-methylpiperidin-4-yloxy)methyl]-N-benzyl-N-methylbenzamide]
35 | 104 °C | CCOC(=O)c1cccc(C(OC2CCN(C)CC2)c2nc3ccccc3s2)c1 (stereo not drawn) (as salt: oxalate) [Example 206, 3-[benzothiazol-2-yl(1-methylpiperidin-4-yloxy)methyl]benzoic acid ethyl ester]
36 | 146 °C | CN1CCC(OC(c2cccc(SCCCCN)c2)c2nc3ccccc3[nH]2)CC1 (stereo not drawn) (as salt: oxalate) [Example 326, 4-{3-[(1H-benzimidazol-2-yl)(1-methylpiperidin-4-yloxy)methyl]phenylsulfanyl}butylamine]
37 | 78 °C | CN1CCC(OC(c2cccc(Oc3cccnc3)c2)c2nc3ccccc3s2)CC1 (stereo not drawn) (as salt: oxalate) [Example 448, 2-{(1-methylpiperidin-4-yloxy)[3-(pyridin-3-yloxy)phenyl]methyl}benzothiazole]
38 | 81 °C | CN1CCC(OC(c2cccc(OC3CNC3)c2)c2nc3ccccc3s2)CC1 (stereo not drawn) (as salt: oxalate) [Example 402, 2-[[3-(azetidin-3-yloxy)phenyl](1-methylpiperidin-4-yloxy)methyl]benzothiazole]
39 | 125 °C | CNCCOc1cccc(C(OC2CCN(C)CC2)c2nc3ccccc3s2)c1 (stereo not drawn) (as salt: oxalate) [Example 279, (2-{3-[benzothiazol-2-yl(1-methylpiperidin-4-yloxy)methyl]phenoxy}ethyl)methyl-amine]
